Data from patent US20240109917A1 (ACTELION PHARMACEUTICALS LTD, priority 2020, published 2024).

Legend:
[1] = biological target: Tb-labeled inactive PDGFRβ (Homo sapiens (Human), UniProt P09619); test: PDGFRβ LanthaScreen Assay; type: binding; settings: read-out: PDGFR Lantha IC50
VEGFR2, unphosphorylated = VEGFR2, unphosphorylated (Homo sapiens (Human), UniProt P35968); test: VEGFR ADP GLO Assay; type: biochemical
[2] = biological target: His6-TEV-PDGFRβ (557-1016) (Homo sapiens (Human), UniProt P09619); test: PDGFRβ HTRF Assay; type: biochemical; settings: read-out: PDGFR HTRF IC50
Chain of His6-TEV-PDGFRβ (557-1016) (P09619 557-1016): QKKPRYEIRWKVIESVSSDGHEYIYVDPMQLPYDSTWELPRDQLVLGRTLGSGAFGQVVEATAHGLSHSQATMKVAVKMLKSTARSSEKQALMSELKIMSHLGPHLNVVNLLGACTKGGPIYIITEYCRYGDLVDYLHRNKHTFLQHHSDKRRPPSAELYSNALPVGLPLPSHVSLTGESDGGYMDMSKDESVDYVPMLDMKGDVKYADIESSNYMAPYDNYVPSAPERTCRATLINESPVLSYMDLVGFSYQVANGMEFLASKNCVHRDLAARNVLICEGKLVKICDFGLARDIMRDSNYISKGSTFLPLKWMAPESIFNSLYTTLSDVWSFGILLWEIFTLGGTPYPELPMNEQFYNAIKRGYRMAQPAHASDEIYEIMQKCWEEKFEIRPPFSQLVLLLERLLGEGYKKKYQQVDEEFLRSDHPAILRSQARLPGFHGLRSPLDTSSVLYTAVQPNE
Outline: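 Human PDGFRβ (557-1016) pre-incubated with compound for 30 min at RT in pH 7.5 HEPES/MgCl2/EGTA/Brij-35/DTT buffer. Reaction started with ATP and TK-biotin peptide, run 3 h at RT, then quenched with EDTA-containing Eu-cryptate antibody/streptavidin-XL665. HTRF 665/620 nm ratio read after 60 min; percent inhibition relative to DMSO and 10 μM imatinib controls.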

Chain of Tb-labeled inactive PDGFRβ (P09619 33-1106): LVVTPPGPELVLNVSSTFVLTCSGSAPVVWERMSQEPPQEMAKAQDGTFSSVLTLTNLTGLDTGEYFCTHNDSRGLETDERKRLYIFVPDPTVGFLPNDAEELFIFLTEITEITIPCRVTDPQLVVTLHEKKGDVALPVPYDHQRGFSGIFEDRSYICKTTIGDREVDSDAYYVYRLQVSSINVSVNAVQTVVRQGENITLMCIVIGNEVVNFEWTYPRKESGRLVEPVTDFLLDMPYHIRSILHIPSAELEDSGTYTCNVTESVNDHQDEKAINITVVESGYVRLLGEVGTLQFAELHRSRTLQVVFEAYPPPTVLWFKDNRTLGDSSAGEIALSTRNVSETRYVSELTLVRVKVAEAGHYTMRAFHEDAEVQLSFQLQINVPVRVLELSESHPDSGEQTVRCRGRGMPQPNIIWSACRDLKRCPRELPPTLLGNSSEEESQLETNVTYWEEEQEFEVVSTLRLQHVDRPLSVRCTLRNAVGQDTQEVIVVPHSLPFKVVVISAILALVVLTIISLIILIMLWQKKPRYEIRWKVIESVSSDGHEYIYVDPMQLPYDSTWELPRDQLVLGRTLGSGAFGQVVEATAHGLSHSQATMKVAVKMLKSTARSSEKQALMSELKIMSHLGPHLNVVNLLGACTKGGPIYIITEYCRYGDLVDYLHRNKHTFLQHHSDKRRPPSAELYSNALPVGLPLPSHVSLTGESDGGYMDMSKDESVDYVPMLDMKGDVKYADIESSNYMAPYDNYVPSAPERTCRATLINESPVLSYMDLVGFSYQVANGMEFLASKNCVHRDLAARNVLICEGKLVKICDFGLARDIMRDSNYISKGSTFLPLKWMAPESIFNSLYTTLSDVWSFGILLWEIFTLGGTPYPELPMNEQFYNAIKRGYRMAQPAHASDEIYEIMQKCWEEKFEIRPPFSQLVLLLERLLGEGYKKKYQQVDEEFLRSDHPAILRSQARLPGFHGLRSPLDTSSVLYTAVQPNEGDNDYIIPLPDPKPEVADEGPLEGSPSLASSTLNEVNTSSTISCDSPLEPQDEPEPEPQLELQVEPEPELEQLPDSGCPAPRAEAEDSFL
Chain of VEGFR2, unphosphorylated (P35968 20-1356): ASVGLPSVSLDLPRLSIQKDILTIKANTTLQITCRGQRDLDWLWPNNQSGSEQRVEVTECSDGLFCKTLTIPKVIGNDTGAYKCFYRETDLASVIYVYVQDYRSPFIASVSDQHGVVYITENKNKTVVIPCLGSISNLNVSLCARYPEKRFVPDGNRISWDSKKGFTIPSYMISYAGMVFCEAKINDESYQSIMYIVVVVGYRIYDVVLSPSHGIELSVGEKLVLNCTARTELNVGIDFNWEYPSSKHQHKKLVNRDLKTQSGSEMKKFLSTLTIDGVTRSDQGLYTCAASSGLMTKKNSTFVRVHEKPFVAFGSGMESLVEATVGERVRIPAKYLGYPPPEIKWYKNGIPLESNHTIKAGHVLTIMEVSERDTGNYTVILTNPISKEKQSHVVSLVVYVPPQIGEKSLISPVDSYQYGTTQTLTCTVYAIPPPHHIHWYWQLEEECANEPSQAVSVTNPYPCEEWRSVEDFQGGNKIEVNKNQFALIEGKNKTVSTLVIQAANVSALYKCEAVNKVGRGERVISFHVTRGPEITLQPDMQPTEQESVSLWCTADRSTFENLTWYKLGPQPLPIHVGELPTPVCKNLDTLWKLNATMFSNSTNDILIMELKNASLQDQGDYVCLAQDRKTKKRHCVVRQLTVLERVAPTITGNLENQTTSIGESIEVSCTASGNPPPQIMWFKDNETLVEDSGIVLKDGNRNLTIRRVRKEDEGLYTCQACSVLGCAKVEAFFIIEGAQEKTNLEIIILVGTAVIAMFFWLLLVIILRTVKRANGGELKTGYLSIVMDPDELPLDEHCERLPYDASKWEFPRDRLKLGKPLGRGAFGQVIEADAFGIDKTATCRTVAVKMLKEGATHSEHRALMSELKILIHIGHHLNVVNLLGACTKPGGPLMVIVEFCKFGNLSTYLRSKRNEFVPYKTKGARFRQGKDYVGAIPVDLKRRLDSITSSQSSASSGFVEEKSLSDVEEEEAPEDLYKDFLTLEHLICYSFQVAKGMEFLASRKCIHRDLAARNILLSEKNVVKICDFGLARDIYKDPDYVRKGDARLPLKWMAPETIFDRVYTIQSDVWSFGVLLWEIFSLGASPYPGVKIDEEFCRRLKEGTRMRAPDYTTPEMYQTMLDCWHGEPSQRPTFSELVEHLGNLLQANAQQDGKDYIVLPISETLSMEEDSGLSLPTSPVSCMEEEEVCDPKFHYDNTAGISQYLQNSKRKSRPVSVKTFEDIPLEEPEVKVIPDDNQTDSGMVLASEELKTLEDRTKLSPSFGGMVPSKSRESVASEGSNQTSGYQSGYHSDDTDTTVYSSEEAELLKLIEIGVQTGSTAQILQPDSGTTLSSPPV

SMILES | IC50 [1] | IC50 (VEGFR2, unphosphorylated) | IC50 [2]
Cc1ncc(NC(=O)CN(C)C2CCOCC2)cc1NC(=O)c1cnn2cc(-c3cnn(C)c3)sc12 [Example 15, 2-(1-methyl-1H-pyrazol-4-yl)-N-(2-methyl-5-(2-(methyl(tetrahydro-2H-pyran-4-yl)amino)acetamido)pyridin-3-yl)pyrazolo[5,1-b]thiazole-7-carboxamide] | 4.7 nM | > 7.5 µM | 0.5 nM
Cc1ncc(C(=O)NCCN2CCCC23CCC3)cc1NC(=O)c1cnn2cc(-c3cn(C)nc3C)sc12 [Example 213, N-(5-((2-(5-azaspiro[3.4]octan-5-yl)ethyl)carbamoyl)-2-methylpyridin-3-yl)-2-(1,3-dimethyl-1H-pyrazol-4-yl)pyrazolo[5,1-b]thiazole-7-carboxamide] | 1.9 nM | > 7.5 µM | 0.3 nM
Cc1cc(C(=O)NCCN2CCCC2(C)C)sc1NC(=O)c1cnn2cc(-c3ccncc3)sc12 [Example 187, N-(5-((2-(2,2-dimethylpyrrolidin-1-yl)ethyl)carbamoyl)-3-methylthiophen-2-yl)-2-(pyridin-4-yl)pyrazolo[5,1-b]thiazole-7-carboxamide] | 1190 nM | > 7.5 µM | 27.7 nM
Cc1cc(C(=O)NCCN2[C@H](C)CCC[C@@H]2C)sc1NC(=O)c1cnn2cc(-c3cnn(C)c3)sc12 [Example 198, N-(5-((2-((2S,6R)-2,6-dimethylpiperidin-1-yl)ethyl)carbamoyl)-3-methylthiophen-2-yl)-2-(1-methyl-1H-pyrazol-4-yl)pyrazolo[5,1-b]thiazole-7-carboxamide] | 111 nM | > 7.5 µM | 2 nM
Cc1ncc(NC(=O)CN2CCCC23CC3)cc1NC(=O)c1cnn2cc(-c3cnn(C)c3)sc12 [Example 16, N-(5-(2-(4-azaspiro[2.4]heptan-4-yl)acetamido)-2-methylpyridin-3-yl)-2-(1-methyl-1H-pyrazol-4-yl)pyrazolo[5,1-b]thiazole-7-carboxamide] | 5.1 nM | > 7.5 µM | 0.5 nM
Cc1ncc(NC(=O)OCCN2CC3CCC2C3)cc1NC(=O)c1cnn2cc(-c3cnn(C)c3)sc12 (stereo not drawn) [Example 250, 2-(2-azabicyclo[2.2.1]heptan-2-yl)ethyl (6-methyl-5-(2-(1-methyl-1H-pyrazol-4-yl)pyrazolo[5,1-b]thiazole-7-carboxamido)pyridin-3-yl)carbamate] | 75.2 nM | > 7.5 µM | 1.4 nM
Cc1ncc(C(=O)NCCN2CC3CCC2C3)cc1NC(=O)c1cnn2cc(-c3cnn(C)c3C)sc12 (stereo not drawn) [Example 210, N-(5-((2-(2-azabicyclo[2.2.1]heptan-2-yl)ethyl)carbamoyl)-2-methylpyridin-3-yl)-2-(1,5-dimethyl-1H-pyrazol-4-yl)pyrazolo[5,1-b]thiazole-7-carboxamide] | 2.6 nM | > 7.5 µM | 0.3 nM
Cn1cc(-c2cn3ncc(C(=O)Nc4sc(C(=O)NCCN5CCCC56CCC6)cc4C#N)c3s2)cn1 [Example 206, N-(5-((2-(5-azaspiro[3.4]octan-5-yl)ethyl)carbamoyl)-3-cyanothiophen-2-yl)-2-(1-methyl-1H-pyrazol-4-yl)pyrazolo[5,1-b]thiazole-7-carboxamide] | > 3000 nM | > 2.5 µM | 3550 nM
Cc1cc(C(=O)NCCN2CCCC(O)C2)sc1NC(=O)c1cnn2cc(-c3cnn(C)c3)sc12 (stereo not drawn) [Example 200, N-(5-((2-(3-hydroxypiperidin-1-yl)ethyl)carbamoyl)-3-methylthiophen-2-yl)-2-(1-methyl-1H-pyrazol-4-yl)pyrazolo[5,1-b]thiazole-7-carboxamide] | 2210 nM | > 7.5 µM | 49 nM
Cc1ncc(C(=O)NCCN2CCCC2)cc1NC(=O)c1cnn2cc(-c3c(C)nn(C)c3C)sc12 [Example 223, N-(2-methyl-5-((2-(pyrrolidin-1-yl)ethyl)carbamoyl)pyridin-3-yl)-2-(1,3,5-trimethyl-1H-pyrazol-4-yl)pyrazolo[5,1-b]thiazole-7-carboxamide] | 5.7 nM | > 0.833 µM | 0.6 nM
Cc1ncc(NC(=O)OC[C@@H]2CCCN2C)cc1NC(=O)c1cnn2cc(-c3cnn(C)c3)sc12 [Example 243, (S)-(1-methylpyrrolidin-2-yl)methyl (6-methyl-5-(2-(1-methyl-1H-pyrazol-4-yl)pyrazolo[5,1-b]thiazole-7-carboxamido)pyridin-3-yl)carbamate] | 13.1 nM | > 7.5 µM | 0.5 nM
Cc1ncc(C(=O)NCCN2CCCC2)cc1NC(=O)c1cnn2cc(-c3cn(C)nc3C)sc12 [Example 218, 2-(1,3-Dimethyl-1H-pyrazol-4-yl)-N-(2-methyl-5-((2-(pyrrolidin-1-yl)ethyl)carbamoyl)pyridin-3-yl)pyrazolo[5,1-b]thiazole-7-carboxamide] | 3.6 nM | > 7.5 µM | 0.3 nM
Cc1cc(C(=O)NCCN2CCCC2(C)C)sc1NC(=O)c1cnn2cc(-c3cncnc3)sc12 [Example 185, N-(5-((2-(2,2-dimethylpyrrolidin-1-yl)ethyl)carbamoyl)-3-methylthiophen-2-yl)-2-(pyrimidin-5-yl)pyrazolo[5,1-b]thiazole-7-carboxamide] | > 3000 nM | > 7.5 µM | 704 nM
Cc1cc(C(=O)NCCN2CCC(CO)CC2)sc1NC(=O)c1cnn2cc(-c3cnn(C)c3)sc12 [Example 193, N-(5-((2-(4-(hydroxymethyl)piperidin-1-yl)ethyl)carbamoyl)-3-methylthiophen-2-yl)-2-(1-methyl-1H-pyrazol-4-yl)pyrazolo[5,1-b]thiazole-7-carboxamide] | > 3000 nM | > 7.5 µM | 321 nM
Cc1ncc(C(=O)NCCN2CCCC23CCC3)cc1NC(=O)c1cnn2cc(-c3c(C)nn(C)c3C)sc12 [Example 214, N-(5-((2-(5-azaspiro[3.4]octan-5-yl)ethyl)carbamoyl)-2-methylpyridin-3-yl)-2-(1,3,5-trimethyl-1H-pyrazol-4-yl)pyrazolo[5,1-b]thiazole-7-carboxamide] | 1.8 nM | > 7.5 µM | 0.3 nM
COc1ncccc1-c1cn2ncc(C(=O)Nc3cc(C(=O)NCCN4CCCC4(C)C)cnc3C)c2s1 [Example 226, N-(5-((2-(2,2-Dimethylpyrrolidin-1-yl)ethyl)carbamoyl)-2-methylpyridin-3-yl)-2-(2-methoxypyridin-3-yl)pyrazolo[5,1-b]thiazole-7-carboxamide] | 1.3 nM | > 2.5 µM | 0.2 nM
Cc1ncc(C(=O)NCCN2C[C@H]3CC[C@@H]2C3)cc1NC(=O)c1cnn2cc(-c3cn(C)nc3C)sc12 [Example 211, N-(5-((2-((1R,4S)-2-azabicyclo[2.2.1]heptan-2-yl)ethyl)carbamoyl)-2-methylpyridin-3-yl)-2-(1,3-dimethyl-1H-pyrazol-4-yl)pyrazolo[5,1-b]thiazole-7-carboxamide] | 2.4 nM | > 7.5 µM | 0.3 nM
Cc1cc(C(=O)NCCN2CC[C@@H](O)C2)sc1NC(=O)c1cnn2cc(-c3cnn(C)c3)sc12 [Example 194, (R)—N-(5-((2-(3-hydroxypyrrolidin-1-yl)ethyl)carbamoyl)-3-methylthiophen-2-yl)-2-(1-methyl-1H-pyrazol-4-yl)pyrazolo[5,1-b]thiazole-7-carboxamide] | > 3000 nM | 2.04 µM | 147 nM
Cc1ncc(C(=O)NCCNCCO)cc1NC(=O)c1cnn2cc(-c3cnn(C)c3)sc12 [Example 234, N-(5-((2-((2-hydroxyethyl)amino)ethyl)carbamoyl)-2-methylpyridin-3-yl)-2-(1-methyl-1H-pyrazol-4-yl)pyrazolo[5,1-b]thiazole-7-carboxamide] | 283 nM | > 7.5 µM | 4.6 nM
Cc1cc(C(=O)NCC(C)(C)N2CCCC2)sc1NC(=O)c1cnn2cc(-c3cnn(C)c3)sc12 [Example 202, 2-(1-methyl-1H-pyrazol-4-yl)-N-(3-methyl-5-((2-methyl-2-(pyrrolidin-1-yl)propyl)carbamoyl)thiophen-2-yl)pyrazolo[5,1-b]thiazole-7-carboxamide] | > 3000 nM | > 7.5 µM | 1070 nM
CCc1cc(C(=O)NCCN2CCCC23CCC3)sc1NC(=O)c1cnn2cc(-c3cnn(C)c3)sc12 [Example 205, N-(5-((2-(5-azaspiro[3.4]octan-5-yl)ethyl)carbamoyl)-3-ethylthiophen-2-yl)-2-(1-methyl-1H-pyrazol-4-yl)pyrazolo[5,1-b]thiazole-7-carboxamide] | 107 nM | > 7.5 µM | 39.4 nM
Cc1ncc(NC(=O)CN2CCCC2(C)C)cc1NC(=O)c1cnn2cc(-c3cnn(C)c3)sc12 [Example 13, N-(5-(2-(2,2-dimethylpyrrolidin-1-yl)acetamido)-2-methylpyridin-3-yl)-2-(1-methyl-1H-pyrazol-4-yl)pyrazolo[5,1-b]thiazole-7-carboxamide] | 5 nM | > 7.5 µM | 0.5 nM
Cc1ncc(C(=O)NCCN2CCCC2(C)C)cc1NC(=O)c1cnn2cc(-c3c(C)n[nH]c3C)sc12 [Example 231, 2-(3,5-Dimethyl-1H-pyrazol-4-yl)-N-(5-((2-(2,2-dimethylpyrrolidin-1-yl)ethyl)carbamoyl)-2-methylpyridin-3-yl)pyrazolo[5,1-b]thiazole-7-carboxamide] | 3.3 nM | > 7.5 µM | 0.4 nM
Cc1cc(C(=O)NCCN2CCc3ccccc3C2)sc1NC(=O)c1cnn2cc(-c3cnn(C)c3)sc12 [Example 204, N-(5-((2-(3,4-dihydroisoquinolin-2 (1H)-yl)ethyl)carbamoyl)-3-methylthiophen-2-yl)-2-(1-methyl-1H-pyrazol-4-yl)pyrazolo[5,1-b]thiazole-7-carboxamide] | 420 nM | > 7.5 µM | 19.2 nM
